Tested on: SMCs in relation to ECs
Test: activity ratio: efficiency towards SMCs / efficiency towards ECs
Type: cell-based
Conditions: activity ratio class; order in Table 1 follows the calculated values
Protocol: For determination of vascular SMC proliferation, 0.5×10^4 viable rat aortic SMCs per well were seeded in SMC growth medium (DMEM/F12 medium with 20% serum, 30 μg/mL Gentamicin and 15 ng/mL Amphotericin) in 96-well plates. 24 h later, the medium was removed, the cells were washed once with SMC starvation medium (DMEM/F12 medium with 0.1% serum, 0.2% BSA, 30 μg/mL Gentamicin and 15 ng/mL Amphotericin) and incubated in starvation medium for further 24 h.
The quiescent cells were then pretreated for 30 min with the test compounds and induced to proliferate with 20 ng/mL platelet-derived growth factor (PDGF). Unstimulated cells were utilized for normalization and estimation of the basal level of proliferation. The final concentration of the solvent vehicle, dimethyl sulfoxide (DMSO), was the same (0.1%) in all wells. 48 h later, the SMC proliferation was quantified by resazurin dye conversion for 2 h as previously described (H. Joa et al., J. Nat. Prod. 74(6), 1513-6 (2011)).
For determination of endothelial cell proliferation, 0.5×10^4 HUVECtert immortalized human umbilical vein endothelial cells (H. B. Schiller et al., Mol. Biol. Cell. 20(3), 745-756 (2009)) were seeded in 96-well plates for 24 h in HUVEC Complete Medium (EBM™ growth medium supplemented with 10% fetal bovine serum, EBM™ SingleQuots (Lonza, Basel, Switzerland), 100 U/mL benzylpenicillin, 100 μg/mL streptomycin, and 1% amphotericin). Afterwards, the medium was exchanged with fresh HUVEC Complete Medium and cells were treated with the indicated compounds for 48 h. After the end of the incubation period, the medium was removed, the cells were washed once with 200 μL/well PBS, and treated with 150 μL HUVEC Complete Medium containing 10 μg/mL resazurin. 2 h later, the fluorescence was measured at a wavelength of 580 nm, with excitation wavelength 535 nm in a 96-well plate reader (Tecan GENios Pro; Tecan Group Ltd., Mannedorf, Switzerland).
In every case, the percentage of viable cells was subtracted from 1, in order to obtain a measure of efficiency of the test compounds towards each particular type of cells, and subsequently, the efficiency quotient towards SMCs and ECs was calculated and taken as the “activity ratio” and thus as a measure of selective efficiency of each test compound towards SMCs in relation to ECs. For example, the synthetic Leoligin with the bio ID 2418 prepared in Comparative Example 27 as compound 10-22 gave the following results:
Due to the usual fluctuations in determining surviving cells, which amount to approximately ±10%, and due to the relatively strong resulting fluctuations in calculating quotients—especially if the inhibitory effect of said novel compounds towards ECs is very poor—said threshold value of 1.50 for the activity ratio, as already mentioned above, was introduced.
In the following, a table listing every compound prepared in examples and comparative Examples for which an activity ratio (a.r.) of >1.0 was determined, is given.

SMILES: COc1ccc([C@H]2OC[C@H](Cc3cccc4ccccc34)[C@@H]2CO)cc1OC [Example 3, ((2S,3R,4R)-2-(3,4-dimethoxyphenyl)-4-(naphthalen-1-ylmethyl)tetrahydro-furan-3-yl)methanol]
- a.r. code: AA (a.r. ≧ 2.0)

SMILES: COc1ccc([C@H]2OC[C@H](Cc3ccc(C(F)(F)F)cc3)[C@@H]2CO)cc1OC [Example 4, ((2S,3R,4R)-2-(3,4-dimethoxyphenyl)-4-(4-(trifluoromethyl)benzyl)tetrahydro-furan-3-yl)methanol]
- a.r. code: A (a.r. ≧ 1.50)

SMILES: CCCCc1ccc(C[C@H]2CO[C@H](c3ccc(OC)c(OC)c3)[C@H]2CO)cc1 [Example 5, ((2S,3R,4R)-4-(4-butylbenzyl)-2-(3,4-dimethoxyphenyl)tetrahydrofuran-3-yl)-methanol]
- a.r. code: AA (a.r. ≧ 2.0)

SMILES: COc1ccc([C@H]2OC[C@H](Cc3ccc(C(C)(F)F)cc3)[C@@H]2CO)cc1OC [Example 6, ((2S,3R,4R)-4-(4-(1,1-difluoroethyl)benzyl)-2-(3,4-dimethoxyphenyl)tetrahydro-furan-3-yl)methanol]
- a.r. code: AA (a.r. ≧ 2.0)

SMILES: COc1cc([C@H]2OC[C@H](Cc3ccccc3)[C@@H]2CO)cc(OC)c1OC [Example 7, ((2S,3R,4R)-4-benzyl-2-(3,4,5-trimethoxyphenyl)tetrahydrofuran-3-yl)methanol]
- a.r. code: AAA (a.r. ≧ 5.0)

SMILES: COc1cc([C@H]2OC[C@H](Cc3ccc(C(F)(F)F)cc3)[C@@H]2CO)cc(OC)c1OC [Example 8, ((2S,3R,4R)-4-(4-(trifluoromethyl)benzyl)-2-(3,4,5-trimethoxyphenyl)tetrahydro-furan-3-yl)methanol]
- a.r. code: AAA (a.r. ≧ 5.0)

SMILES: COc1cc([C@H]2OC[C@H](Cc3ccc(-c4ccccc4)cc3)[C@@H]2CO)cc(OC)c1OC [Example 9, ((2S,3R,4R)-4-([1,1′-biphenyl]-4-ylmethyl)-2-(3,4,5-trimethoxyphenyl)-tetrahydrofuran-3-yl)methanol]
- a.r. code: AA (a.r. ≧ 2.0)

SMILES: C/C=C(/C)C(=O)OC[C@H]1[C@@H](Cc2ccc(C(C)(C)C)cc2)CO[C@@H]1c1ccc(OC)c(OC)c1 [Example 10, (Z)-((2S,3R,4R)-4-(4-(tert-butyl)benzyl)-2-(3,4-dimethoxyphenyl)tetrahydro-furan-3-yl)methyl 2-methylbut-2-enoate]
- a.r. code: AA (a.r. ≧ 2.0)

SMILES: C/C=C(/C)C(=O)OC[C@H]1[C@@H](Cc2ccc(C(=O)OCC)cc2)CO[C@@H]1c1ccc(OC)c(OC)c1 [Example 11, ethyl 4-(((3R,4R,5S)-5-(3,4-dimethoxyphenyl)-4-((((Z)-2-methylbut-2-enoyl)-oxy)methyl)tetrahydrofuran-3-yl)methyl)benzoate]
- a.r. code: A (a.r. ≧ 1.50)

SMILES: C/C=C(/C)C(=O)OC[C@H]1[C@@H](Cc2ccccn2)CO[C@@H]1c1ccc(OC)c(OC)c1 [Example 12, (Z)-((2S,3R,4R)-2-(3,4-dimethoxyphenyl)-4-(pyridin-2-ylmethyl)tetrahydro-furan-3-yl)methyl 2-methylbut-2-enoate]
- a.r. code: AAA (a.r. ≧ 5.0)

SMILES: C/C=C(/C)C(=O)OC[C@H]1[C@@H](Cc2ccc(CCCC)cc2)CO[C@@H]1c1ccc(OC)c(OC)c1 [Example 13, (Z)-((2S,3R,4R)-4-(4-butylbenzyl)-2-(3,4-dimethoxyphenyl)tetrahydrofuran-3-yl)methyl 2-methylbut-2-enoate]
- a.r. code: AAA (a.r. ≧ 5.0)

SMILES: C/C=C(/C)C(=O)OC[C@H]1[C@@H](Cc2ccc(C(C)(F)F)cc2)CO[C@@H]1c1ccc(OC)c(OC)c1 [Example 14, (Z)-((2S,3R,4R)-4-(4-(1,1-difluoroethyl)benzyl)-2-(3,4-dimethoxyphenyl)tetra-hydrofuran-3-yl)methyl 2-methylbut-2-enoate]
- a.r. code: A (a.r. ≧ 1.50)

SMILES: C/C=C(/C)C(=O)OC[C@H]1[C@@H](Cc2ccc(C(F)(F)F)cc2)CO[C@@H]1c1ccc(F)cc1 [Example 15, (Z)-((2S,3R,4R)-2-(4-fluorophenyl)-4-(4-(trifluoromethyl)benzyl)tetrahydro-furan-3-yl)methyl 2-methylbut-2-enoate]
- a.r. code: AAA (a.r. ≧ 5.0)

SMILES: C/C=C(/C)C(=O)OC[C@H]1[C@@H](Cc2ccc(C(F)(F)F)cc2)CO[C@@H]1c1ccccc1 [Example 16, (Z)-((2S,3R,4R)-2-phenyl-4-(4-(trifluoromethyl)benzyl)tetrahydrofuran-3-yl)-methyl 2-methylbut-2-enoate]
- a.r. code: AAA (a.r. ≧ 5.0)

SMILES: C/C=C(/C)C(=O)OC[C@H]1[C@@H](Cc2ccc(F)cc2)CO[C@@H]1c1ccc(F)cc1 [Example 17, (Z)-((2S,3R,4R)-4-(4-fluorobenzyl)-2-(4-fluorophenyl)tetrahydrofuran-3-yl)-methyl 2-methylbut-2-enoate]
- a.r. code: AAA (a.r. ≧ 5.0)

SMILES: C/C=C(/C)C(=O)OC[C@H]1[C@@H](Cc2ccc(C(C)(C)C)cc2)CO[C@@H]1c1ccc(F)cc1 [Example 18, (Z)-((2S,3R,4R)-4-(4-(tert-butyl)benzyl)-2-(4-fluorophenyl)tetrahydrofuran-3-yl)methyl 2-methylbut-2-enoate]
- a.r. code: AAA (a.r. ≧ 5.0)

SMILES: COc1ccc(C[C@H]2CO[C@H](c3cc(OC)c(OC)c(OC)c3)[C@H]2COC(=O)C=C(C)C)cc1OC [Example 19, ((2S,3R,4R)-4-(3,4-dimethoxybenzyl)-2-(3,4,5-trimethoxyphenyl)tetrahydro-furan-3-yl)methyl 3-methylbut-2-enoate]
- a.r. code: AAA (a.r. ≧ 5.0)

SMILES: C/C=C(/C)C(=O)OC[C@H]1[C@@H](Cc2ccc(C(C)(C)C)cc2)CO[C@@H]1c1cc(OC)c(OC)c(OC)c1 [Example 20, (Z)-((2S,3R,4R)-4-(4-(tert-butyl)benzyl)-2-(3,4,5-trimethoxyphenyl)tetrahydro-furan-3-yl)methyl 2-methylbut-2-enoate]
- a.r. code: AA (a.r. ≧ 2.0)

SMILES: C/C=C(/C)C(=O)OC[C@H]1[C@@H](Cc2ccc(C(C)=O)cc2)CO[C@@H]1c1cc(OC)c(OC)c(OC)c1 [Example 21, (Z)-((2S,3R,4R)-4-(4-acetylbenzyl)-2-(3,4,5-trimethoxyphenyl)tetrahydrofuran-3-yl)methyl 2-methylbut-2-enoate]
- a.r. code: AA (a.r. ≧ 2.0)

SMILES: C/C=C(/C)C(=O)OC[C@H]1[C@@H](Cc2ccc(C(=O)OCC)cc2)CO[C@@H]1c1cc(OC)c(OC)c(OC)c1 [Example 22, ethyl 4-(((3R,4R,5S)-4-((((Z)-2-methylbut-2-enoyl)oxy)methyl)-5-(3,4,5-trimethoxyphenyl)tetrahydrofuran-3-yl)methyl)benzoate]
- a.r. code: AA (a.r. ≧ 2.0)

SMILES: C/C=C/C(=O)OC[C@H]1[C@@H](Cc2ccc(OC)c(OC)c2)CO[C@@H]1c1ccc(OC)c(OC)c1 [Example 23, (E)-((2S,3R,4R)-4-(3,4-dimethoxybenzyl)-2-(3,4-dimethoxyphenyl)tetrahydro-furan-3-yl)methyl but-2-enoate]
- a.r. code: AA (a.r. ≧ 2.0)

SMILES: COc1ccc(C[C@H]2CO[C@H](c3ccc(OC)c(OC)c3)[C@H]2COC(=O)/C=C/c2ccccc2)cc1OC [Example 24, ((2S,3R,4R)-4-(3,4-dimethoxybenzyl)-2-(3,4-dimethoxyphenyl)tetrahydrofuran-3-yl)methyl cinnamate]
- a.r. code: AA (a.r. ≧ 2.0)

SMILES: COc1ccc(C[C@H]2CO[C@H](c3ccc(OC)c(OC)c3)[C@H]2COC(=O)C=C(C)C)cc1OC [Example 25, ((2S,3R,4R)-4-(3,4-dimethoxybenzyl)-2-(3,4-dimethoxyphenyl)tetrahydrofuran-3-yl)methyl 3-methylbut-2-enoate]
- a.r. code: AA (a.r. ≧ 2.0)

SMILES: COc1ccc(C[C@H]2CO[C@H](c3ccccc3)[C@H]2COC(=O)C2CCCC2)cc1OC [Example 26, ((2S,3R,4R)-4-(3,4-dimethoxybenzyl)-2-phenyltetrahydrofuran-3-yl)methyl cyclopentanecarboxylate]
- a.r. code: A (a.r. ≧ 1.50)

SMILES: COc1ccc(C[C@H]2CO[C@H](c3ccc(OC)c(OC)c3)[C@H]2COC(=O)CC23CC4CC(CC(C4)C2)C3)cc1OC [Example 27, ((2S,3R,4R)-4-(3,4-dimethoxybenzyl)-2-(3,4-dimethoxyphenyl)tetrahydrofuran-3-yl) methyl 2-(adamantan-1-yl)acetate]
- a.r. code: AA (a.r. ≧ 2.0)

SMILES: COc1ccc(C[C@H]2CO[C@H](c3ccccc3)[C@H]2COC(=O)C2CCCCC2)cc1OC [Example 28, ((2S,3R,4R)-4-(3,4-dimethoxybenzyl)-2-phenyltetrahydrofuran-3-yl)methyl cyclohexanecarboxylate]
- a.r. code: A (a.r. ≧ 1.50)

Reference: US20170157301A1, “LEOLIGIN DERIVATIVES AS SMOOTH MUSCLE CELL PROLIFERATION INHIBITORS” (TECHNISCHE UNIVERSITAET WIEN, priority 2014, published 2017)
